According to the supplement of paper PMC11281043:

How the values were obtained:
Conditions in all cases: exposure: 6-8 hpf to 5 dpf, scored at 6 dpf
[1] = system: Danio rerio embryo/larva; experiment: max % larvae with any abnormality across tested concentrations; max tested concentration (log10 uM): 2; higher = more toxic; extreme values may be limits of the assay
[2] = system: Danio rerio embryo/larva; experiment: max % larvae dead across tested concentrations; max tested concentration (log10 uM): 2; higher = more toxic; extreme values may be limits of the assay
[3] = system: Danio rerio embryo/larva; experiment: max % larvae unhatched across tested concentrations; max tested concentration (log10 uM): 2; higher = more toxic
[4] = system: Danio rerio embryo/larva; experiment: max % larvae with craniofacial defects across tested concentrations; higher = more toxic; extreme values may be limits of the assay
[5] = system: Danio rerio embryo/larva; experiment: max % larvae with abnormal position across tested concentrations; higher = more toxic; extreme values may be limits of the assay
[6] = system: Danio rerio embryo/larva; experiment: max % larvae with spinal defects across tested concentrations; higher = more toxic; extreme values may be limits of the assay
[7] = system: Danio rerio embryo/larva; experiment: max % larvae with blood pooling across tested concentrations; higher = more toxic; extreme values may be limits of the assay
[8] = system: Danio rerio embryo/larva; experiment: max % larvae with pigmentation defects across tested concentrations; higher = more toxic
[9] = system: Danio rerio embryo/larva; experiment: max % larvae with edema across tested concentrations; higher = more toxic; extreme values may be limits of the assay
[10] = system: Danio rerio embryo/larva; experiment: max % larvae generally abnormal across tested concentrations; higher = more toxic; extreme values may be limits of the assay
[11] = system: Danio rerio embryo/larva; experiment: max % larvae with uninflated swim bladder across tested concentrations; higher = more toxic; extreme values may be limits of the assay
[12] = system: Danio rerio embryo/larva; experiment: max % larvae with tail defects across tested concentrations; higher = more toxic; extreme values may be limits of the assay

| SMILES | max % larvae [1] [%] | max % larvae dead across tested concentrations [2] [%] | max % larvae unhatched across tested concentrations [3] [%] | max % larvae [4] [%] | max % larvae [5] [%] | max % larvae [6] [%] | max % larvae [7] [%] | max % larvae [8] [%] | max % larvae [9] [%] | max % larvae generally abnormal across tested concentrations [10] [%] | max % larvae [11] [%] | max % larvae [12] [%] |
| --- | --- | --- | --- | --- | --- | --- | --- | --- | --- | --- | --- | --- |
| O=C(Cl)C(F)(F)C(F)(F)C(F)(F)C(F)(F)C(F)(F)C(F)(F)C(F)(F)F [Pentadecafluorooctanoyl chloride] | 16.7 | 0 | 0 |  |  |  |  |  |  |  |  |  |
| C=CC(=O)OCC(F)(F)C(F)(F)C(F)(F)C(F)(F)C(F)(F)C(F)(F)C(F)(F)F [1H,1H-Perfluorooctyl acrylate] | 0 | 0 | 0 |  |  |  |  |  |  |  |  |  |
| NC(=O)C(F)(F)C(F)(F)F [Pentafluoropropionamide] | 0 | 0 | 0 |  |  |  |  |  |  |  |  |  |
| O=C(O)C(F)(F)C(F)(F)C(F)(F)C(F)(F)C(F)(F)C(F)(F)C(F)(F)F [Potassium perfluorooctanoate] | 16.7 | 16.7 | 0 |  |  |  |  |  |  |  |  |  |
| O=C(CC(=O)C(F)(F)F)C(F)(F)F [1,1,1,5,5,5-Hexafluoro-2,4-pentanedione] | 0 | 0 | 0 |  |  |  |  |  |  |  |  |  |
| O=C(O)C(F)(F)OC(F)(F)C(F)(F)OC(F)(F)C(F)(F)OC(F)(F)F [Perfluoro-3,6,9-trioxadecanoic acid] | 100 | 16.7 | 0 |  |  |  |  |  |  |  |  |  |
| O=C(O)C(F)(F)C(F)(F)C(F)(F)C(F)(F)C(F)(F)C(F)(F)C(F)(F)F [Sodium perfluorooctanoate] | 0 | 0 | 0 |  |  |  |  |  |  |  |  |  |
| O=S(=O)(O)C(F)(F)C(F)(F)C(F)(F)C(F)(F)F [Potassium perfluorobutanesulfonate] | 8.33 | 0 | 0 |  |  |  |  |  |  |  |  |  |
| O=C(O)C(F)(F)C(F)(F)C(F)(F)OC(F)(C(F)(F)F)C(F)(F)F [Perfluoro-4-isopropoxybutanoic acid] | 0 | 0 | 0 |  |  |  |  |  |  |  |  |  |
| COC(=O)C(F)(F)C(F)(F)C(F)(F)C(F)(F)C(F)(F)F [Methyl perfluorohexanoate] | 0 | 0 | 0 |  |  |  |  |  |  |  |  |  |
| NC(=O)C(F)(F)C(F)(F)C(F)(F)C(F)(F)F [Nonafluoropentanamide] | 0 | 0 | 0 |  |  |  |  |  |  |  |  |  |
| O=C(O)C(F)(F)C(F)(F)C(F)F [4H-Perfluorobutanoic acid] | 0 | 0 | 0 |  |  |  |  |  |  |  |  |  |
| OCC(F)(F)C(F)(F)C(F)(F)C(F)(F)C(F)(F)C(F)F [1H,1H,7H-Dodecafluoro-1-heptanol] | 8.33 | 0 | 0 |  |  |  |  |  |  |  |  |  |
| O=C(O)C(F)(F)C(F)(F)C(F)(F)C(F)(F)C(F)(F)C(F)(F)C(F)F [8H-Perfluorooctanoic acid] | 16.7 | 0 | 0 |  |  |  |  |  |  |  |  |  |
| O=C(O)C(F)(F)C(F)(F)OC(F)(F)F [Perfluoro-3-methoxypropanoic acid] | 16.7 | 0 | 0 |  |  |  |  |  |  |  |  |  |
| O=C(O)C(F)(F)C(F)(F)C(F)(F)OC(F)(F)F [Perfluoro(4-methoxybutanoic acid)] | 0 | 0 | 0 |  |  |  |  |  |  |  |  |  |
| OCCC(F)(F)C(F)(F)C(F)(F)C(F)(F)F [4:2 Fluorotelomer alcohol] | 4.17 | 0 | 0 |  |  |  |  |  |  |  |  |  |
| NC(=O)C(F)(F)C(F)(F)C(F)(F)F [Heptafluorobutyramide] | 25 | 16.7 | 0 |  |  |  |  |  |  |  |  |  |
| O=S(=O)(O)C(F)(F)C(F)(F)OC(F)(F)C(F)(F)F [Perfluoro-2-ethoxyethanesulfonic acid] | 16.7 | 0 | 0 |  |  |  |  |  |  |  |  |  |

| SMILES | max % larvae [1] [%] | max % larvae dead across tested concentrations [2] [%] | max % larvae unhatched across tested concentrations [3] [%] | max % larvae [4] [%] | max % larvae [5] [%] | max % larvae [6] [%] | max % larvae [7] [%] | max % larvae [8] [%] | max % larvae [9] [%] | max % larvae generally abnormal across tested concentrations [10] [%] | max % larvae [11] [%] | max % larvae [12] [%] |
| --- | --- | --- | --- | --- | --- | --- | --- | --- | --- | --- | --- | --- |
| OCC(F)(F)OC(F)(F)C(F)(F)OC(F)(F)CO [1H,1H,8H,8H-Perfluoro-3,6-dioxaoctane-1,8-diol] | 0 | 0 | 0 |  |  |  |  |  |  |  |  |  |
| NC(=O)C(F)(F)C(F)(F)C(F)(F)C(F)(F)C(N)=O [Octafluoroadipamide] | 0 | 0 | 0 |  |  |  |  |  |  |  |  |  |
| FC(F)(F)C(F)(F)C(F)(F)C(F)(F)CCI [1H,1H,2H,2H-Perfluorohexyl iodide] | 8.33 | 0 | 0 |  |  |  |  |  |  |  |  |  |
| NC(=O)C(F)(F)C(F)(F)C(F)(F)C(F)F [Perfluoropentanamide] | 0 | 0 | 0 |  |  |  |  |  |  |  |  |  |
| OCC(F)(F)C(F)(F)C(F)(F)CO [Hexafluoroamylene glycol] | 0 | 0 | 0 |  |  |  |  |  |  |  |  |  |
| O=C(O)C=CC(F)(C(F)(F)F)C(F)(F)F [3-(Perfluoroisopropyl)-2-propenoic acid] | 16.7 | 0 | 0 |  |  |  |  |  |  |  |  |  |
| C=C(C)C(=O)OCC(F)(F)C(F)(F)C(F)(F)F [(Perfluoropropyl)methyl methacrylate] | 8.33 | 0 | 0 |  |  |  |  |  |  |  |  |  |
| O=C(O)C(F)(F)C(F)(F)C(F)(F)F [Perfluorobutanoic acid] | 20 | 0 | 0 |  |  |  |  |  |  |  |  |  |
| FC(F)(F)C(F)(F)C(F)(F)CC1CO1 (centres undefined) [1H,1H-Heptafluorobutyl epoxide] | 9.09 | 0 | 0 |  |  |  |  |  |  |  |  |  |
| C[N+](C)(C)CCCNS(=O)(=O)C(F)(F)C(F)(F)C(F)(F)C(F)(F)C(F)(F)C(F)(F)C(F)(F)C(F)(F)F (max tested concentration (log10 uM): 1.47712) |  |  |  | 50 | 12.5 | 0 | 0 | 0 | 50 | 50 | 25 | 0 |
| NC(=O)C(F)(F)C(F)(F)C(F)(F)C(F)F [Perfluoropentanamide] (max tested concentration (log10 uM): 2) |  |  |  | 0 | 0 | 0 | 0 | 0 | 0 | 0 | 0 | 0 |
| O=C(O)C(F)(F)C(F)(F)C(F)(F)C(F)(F)C(F)(F)C(F)(F)C(F)(F)F [Perfluorooctanoic acid] (max tested concentration (log10 uM): 2) |  |  |  | 0 | 8.33 | 0 | 0 | 0 | 16.7 | 16.7 | 16.7 | 4.17 |
| OCC(F)(F)C(F)(F)C(F)(F)C(F)F [1H,1H,5H-Perfluoropentanol] (max tested concentration (log10 uM): 2) |  |  |  | 0 | 0 | 0 | 0 | 0 | 0 | 0 | 0 | 0 |
| O=S(=O)(O)C(F)(F)C(F)(F)C(F)(F)C(F)(F)C(F)(F)C(F)(F)F [Potassium perfluorohexanesulfonate] (max tested concentration (log10 uM): 2) |  |  |  | 33.3 | 19.4 | 0 | 16.7 | 0 | 44.4 | 55.6 | 77.8 | 0 |
| C=CC(=O)OCC(F)(F)C(F)(F)C(F)(F)C(F)(F)C(F)(F)C(F)(F)C(F)(F)F [1H,1H-Perfluorooctyl acrylate] (max tested concentration (log10 uM): 2) |  |  |  | 0 | 0 | 0 | 0 | 0 | 0 | 0 | 0 | 0 |
| OCC(F)(F)C(F)(F)C(F)(F)F [3:1 Fluorotelomer alcohol] (max tested concentration (log10 uM): 2) |  |  |  | 0 | 0 | 0 | 8.33 | 0 | 8.33 | 8.33 | 0 | 0 |
| OCC(F)(F)OC(F)(F)C(F)(F)OC(F)(F)CO [1H,1H,8H,8H-Perfluoro-3,6-dioxaoctane-1,8-diol] (max tested concentration (log10 uM): 2) |  |  |  | 0 | 0 | 0 | 0 | 0 | 0 | 0 | 0 | 0 |
| O=C(O)C(F)(F)OC(F)(F)C(F)(F)OC(F)(F)C(F)(F)OC(F)(F)F [Perfluoro-3,6,9-trioxadecanoic acid] (max tested concentration (log10 uM): 2) |  |  |  | 40 | 25 | 20 | 40 | 0 | 45 | 70 | 100 | 30 |
| COC(=O)C(F)(F)C(F)(F)C(F)(F)C(F)(F)C(F)(F)F [Methyl perfluorohexanoate] (max tested concentration (log10 uM): 2) |  |  |  | 0 | 0 | 0 | 0 | 0 | 0 | 0 | 0 | 0 |
